Experimental data as given in PubChem BioAssay (NCI).
Several values for one entry are separate records, joined by “and”; a condition that tells them apart may be missing. Equal entries are not always repeated.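 Results reflect a 48-hour exposure of cells in 96-well plates to compound at five concentrations. The concentration for 50% growth inhibition is given as GI50. The concentration for full growth arrest is given as TGI.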

Key:
Assay in all cases: NCI anticancer screen, dose series, 48 h
[1] = test system: M14 melanoma
[2] = test system: HCC-2998 colon
[3] = test system: NCI-H460 lung
[4] = test system: SNB-75 CNS
[5] = test system: HCT-15 colon
[6] = test system: NCI-H23 lung
[7] = test system: SF-295 CNS
[8] = test system: K-562 leukemia
[9] = test system: OVCAR-5 ovarian
[10] = test system: ACHN renal

Compound: Cc1ccc(-c2c3c(N)nc(-c4ccncc4)nc3nc3c2c(C)nn3-c2ccccc2)cc1
- GI50 [1]: 13.8 µM
- TGI [1]: > 37.5 µM
- GI50 [2]: > 37.5 µM
- TGI [2]: > 37.5 µM
- GI50 [3]: 6.5 µM
- TGI [3]: 33.6 µM
- GI50 [4]: 1.64 µM
- TGI [4]: 15.2 µM
- GI50 [5]: 13.6 µM
- TGI [5]: > 37.5 µM
- GI50 [6]: 21.6 µM
- TGI [6]: > 37.5 µM
- GI50 [7]: > 37.5 µM
- TGI [7]: > 37.5 µM
- GI50 [8]: 5 µM
- TGI [8]: > 37.5 µM
- GI50 [9]: > 37.5 µM
- TGI [9]: > 37.5 µM
- GI50 [10]: > 37.5 µM
- TGI [10]: > 37.5 µM

Compound: O=C(CCCCCNC1=CC(=O)c2ccccc2C1=O)NCCC[Te]c1ccccc1
- GI50 [1]: 0.473 µM
- TGI [1]: 1.86 µM
- GI50 [2]: 0.798 µM
- TGI [2]: 2.44 µM
- GI50 [3]: 0.197 µM
- TGI [3]: 0.576 µM
- GI50 [4]: 0.29 µM
- TGI [4]: 1.48 µM
- GI50 [5]: 0.293 µM
- TGI [5]: 1.4 µM
- GI50 [6]: 0.336 µM
- TGI [6]: 1.48 µM
- GI50 [7]: 0.248 µM
- TGI [7]: 0.686 µM
- GI50 [8]: 0.72 µM
- TGI [8]: 3.83 µM
- GI50 [9]: 0.362 µM
- TGI [9]: 1.48 µM
- GI50 [10]: 0.408 µM
- TGI [10]: 1.49 µM

Compound: CCCCCCCCn1ccc2cc(NC(=O)Cn3cc(CN4CCC(C)CC4)nn3)ccc21
- GI50 [1]: 1.63 µM
- TGI [1]: 3.08 µM
- GI50 [2]: 1.74 µM
- TGI [2]: 3.24 µM
- GI50 [3]: 1.7 µM
- TGI [3]: 3.22 µM
- GI50 [4]: 1.48 µM
- TGI [4]: 2.82 µM
- GI50 [5]: 1.61 µM
- TGI [5]: 3.15 µM
- GI50 [6]: 2.04 µM
- TGI [6]: 4.34 µM
- GI50 [7]: 1.86 µM
- TGI [7]: 3.5 µM
- GI50 [8]: 1.61 µM
- TGI [8]: 3.51 µM
- GI50 [9]: 1.63 µM
- TGI [9]: 3.42 µM
- GI50 [10]: 1.63 µM
- TGI [10]: 2.99 µM

Compound: COc1ccc(-c2nnc(Nc3nc(O)c(C4=c5cc(OC(F)(F)F)ccc5=NC4=O)s3)o2)cc1
- GI50 [1]: 8.76 µM
- TGI [1]: 28.5 µM
- GI50 [2]: 13.4 µM
- TGI [2]: 28.6 µM
- GI50 [3]: 22 µM
- TGI [3]: > 100 µM
- GI50 [4]: 15.3 µM
- TGI [4]: 36.8 µM
- GI50 [5]: 20.4 µM
- TGI [5]: 80.4 µM
- GI50 [6]: 14.1 µM
- TGI [6]: 30.6 µM
- GI50 [7]: 6.12 µM
- TGI [7]: > 100 µM
- GI50 [8]: 14.4 µM
- TGI [8]: 30.4 µM
- GI50 [9]: 18.2 µM
- TGI [9]: 43.6 µM
- GI50 [10]: 22.3 µM
- TGI [10]: > 100 µM

Compound: O=c1c(-c2ccc3c(c2)OCO3)coc2c(CO)c(O)ccc12
- GI50 [1]: 3.2 µM
- TGI [1]: 14.8 µM
- GI50 [2]: 2.01 µM
- TGI [2]: 3.89 µM
- GI50 [3]: 2.6 µM
- TGI [3]: 7.85 µM
- GI50 [4]: 2.39 µM
- TGI [4]: 7.43 µM
- GI50 [5]: 2.35 µM
- TGI [5]: 6.46 µM
- GI50 [6]: 4.87 µM
- TGI [6]: 24.5 µM
- GI50 [7]: 2.2 µM
- TGI [7]: 6.18 µM
- GI50 [8]: 2.87 µM
- TGI [8]: > 100 µM
- GI50 [9]: 3.3 µM
- TGI [9]: 10.5 µM
- GI50 [10]: 1.82 µM
- TGI [10]: 5.34 µM

Compound: CC(C)(C)C1CCP(=O)(c2ccccc2)CC1 (stereo not given)
- TGI [1]: > 100 µM
- TGI [2]: > 100 µM
- TGI [3]: > 100 µM
- TGI [4]: > 100 µM
- TGI [5]: > 100 µM
- TGI [6]: > 100 µM
- TGI [7]: > 100 µM
- TGI [8]: > 100 µM
- TGI [9]: > 100 µM
- TGI [10]: > 100 µM

Compound: O=C(O)CC1C(=O)OC2C3COC(=O)c4cc(O)c(O)c(O)c4-c4c(cc(O)c(O)c4O)C(=O)OC2C(OC(=O)c2cc(O)c(O)c4c2C1C(O)C(=O)O4)C(OC(=O)c1cc(O)c(O)c(O)c1)O3 (stereo not given)
- TGI [1]: > 100 µM
- TGI [2]: > 100 µM
- TGI [3]: 31.4 µM
- TGI [4]: 41.5 µM
- TGI [5]: > 100 µM
- TGI [6]: > 100 µM
- TGI [7]: > 100 µM
- TGI [8]: > 100 µM
- TGI [9]: > 100 µM
- TGI [10]: > 100 µM

Compound: O=C1c2ccccc2C(=O)c2c(NCCNCCO)ccc(NCCNCCO)c21
- GI50 [1]: 1.9 µM and 2.64 µM and 1.7 µM
- TGI [1]: 8.52 µM and 13.6 µM and 11.6 µM
- GI50 [2]: 1.39 µM and 1.95 µM and 2.18 µM
- TGI [2]: 3.78 µM and 7.83 µM and 7.03 µM
- GI50 [3]: 0.127 µM and 0.158 µM and 0.189 µM
- TGI [3]: 1.91 µM and 3.38 µM and 2.16 µM
- GI50 [4]: 0.649 µM and 0.473 µM and 0.386 µM
- TGI [4]: 3.43 µM and 2.52 µM and 2.46 µM
- GI50 [5]: 10.1 µM and 14.8 µM and 11.2 µM
- TGI [5]: > 100 µM
- GI50 [6]: 0.94 µM and 1.43 µM and 1.22 µM
- TGI [6]: 4.54 µM and 8.5 µM and 5.81 µM
- GI50 [7]: 0.416 µM and 0.655 µM and 0.89 µM
- TGI [7]: 4.47 µM and 9.66 µM and 9.97 µM
- GI50 [8]: 2.47 µM and 2.08 µM and 2.38 µM
- TGI [8]: > 32.1 µM and 33.3 µM and 11.4 µM
- GI50 [9]: 2.5 µM and 2.29 µM and 2.35 µM
- TGI [9]: 9.5 µM and 10.9 µM and 11.5 µM
- GI50 [10]: 2.05 µM and 0.967 µM and 1.39 µM
- TGI [10]: 49 µM and 13 µM and > 44.8 µM

Compound: COc1cccc(C(C#N)NC23CC4CC(CC(C4)C2)C3)c1 (stereo not given)
- TGI [1]: > 100 µM
- TGI [2]: > 100 µM
- TGI [3]: > 100 µM
- TGI [4]: > 100 µM
- TGI [5]: > 100 µM
- TGI [6]: > 100 µM
- TGI [7]: > 100 µM
- TGI [8]: > 100 µM
- TGI [9]: > 100 µM
- TGI [10]: > 100 µM

Compound: Cc1ccc(C)c(NC(=O)C(=O)CC(=O)c2cccc3ccccc23)c1
- TGI [1]: > 100 µM
- TGI [2]: > 100 µM
- TGI [3]: > 100 µM
- TGI [4]: > 100 µM
- TGI [5]: > 100 µM
- TGI [6]: > 100 µM
- TGI [7]: > 100 µM
- TGI [8]: > 100 µM
- TGI [9]: > 100 µM
- TGI [10]: > 100 µM

Compound: C=C1C(=O)O[C@H]2[C@H]1CC/C(COC(=O)c1cccc3ccccc13)=C\CC[C@@]1(C)O[C@@H]21
- GI50 [1]: 1.42 µM
- TGI [1]: 3.21 µM
- GI50 [2]: 1.98 µM
- TGI [2]: 3.76 µM
- GI50 [3]: 2.16 µM
- TGI [3]: 4.84 µM
- GI50 [4]: 3.04 µM
- TGI [4]: 13.3 µM
- GI50 [5]: 1.19 µM
- TGI [5]: 2.89 µM
- GI50 [6]: 1.78 µM
- TGI [6]: 3.7 µM
- GI50 [7]: 2.47 µM
- TGI [7]: 10.2 µM
- GI50 [8]: 1.98 µM
- TGI [8]: 14.7 µM
- GI50 [9]: 2.27 µM
- TGI [9]: 5.58 µM
- GI50 [10]: 1.52 µM
- TGI [10]: 2.86 µM

Compound: Cc1ccc2nc3sc(=O)sc3nc2c1
- TGI [1]: 33.5 µM
- TGI [2]: 30.2 µM
- TGI [3]: 26.6 µM
- TGI [4]: 64.8 µM
- TGI [5]: 31.3 µM
- TGI [6]: 42.5 µM
- TGI [7]: 31 µM
- TGI [8]: 75.6 µM
- TGI [9]: 30.8 µM
- TGI [10]: 28.5 µM

Compound: CCCCCCCCCCCCNC(=O)[C@H]1CSC(c2cc(Br)cs2)N1 (stereo not given in full)
- GI50 [1]: 0.858 µM
- TGI [1]: 1.65 µM
- GI50 [2]: 2.73 µM
- TGI [2]: 9.41 µM
- GI50 [3]: 0.991 µM
- TGI [3]: 1.99 µM
- GI50 [4]: 0.851 µM
- TGI [4]: 1.56 µM
- GI50 [5]: 1.03 µM
- TGI [5]: 2.38 µM
- GI50 [6]: 1.53 µM
- TGI [6]: 5.11 µM
- GI50 [7]: 1.42 µM
- TGI [7]: 5.01 µM
- GI50 [8]: 1.13 µM
- TGI [8]: 2.46 µM
- GI50 [9]: 1.94 µM
- TGI [9]: 6.49 µM
- GI50 [10]: 2.01 µM
- TGI [10]: 6.54 µM

Compound: C[C@@H](Oc1cc(-c2cnn(C3CC4(CNC4)C3)c2)cnc1N)c1c(Cl)ccc(F)c1Cl
- GI50 [1]: 1.57 µM
- TGI [1]: 3.37 µM
- GI50 [2]: 5.42 µM
- TGI [2]: 19.7 µM
- GI50 [3]: 1.98 µM
- TGI [3]: 13.7 µM
- GI50 [4]: 2.44 µM
- TGI [4]: 9.29 µM
- GI50 [5]: 4.04 µM
- TGI [5]: 15.1 µM
- GI50 [6]: 1.97 µM
- TGI [6]: 16 µM
- GI50 [7]: 1.41 µM
- TGI [7]: 13.6 µM
- GI50 [8]: 0.349 µM
- TGI [8]: 5.43 µM
- GI50 [9]: 1.82 µM
- TGI [9]: 14.2 µM
- GI50 [10]: 4.89 µM
- TGI [10]: 18.3 µM
